Data from ChEMBL document CHEMBL1201862, “PubChem BioAssay data set” (2004).
Calls of active or inactive are those of the source.

Key:
HeLa = test: ATP-based viability loss in HeLa cells – cell-based, CellTiter-Glo luminescence, cherry-pick samples, cytotoxicity control for MITF activator project, dose response (AID 540259); format: functional; conditions: Homo sapiens
CAAX prenyl protease 2 [1] = biological target: CAAX prenyl protease 2 (Homo sapiens, UniProt Q9Y256); test: inhibition of Ras-converting CAAX protease Rce1 – biochemical, yeast membranes, quenched-peptide fluorescence, cherry-pick, dose response (AID 588849)
Chain of CAAX prenyl protease 2 (Homo sapiens, UniProt Q9Y256) (Q9Y256 whole entry): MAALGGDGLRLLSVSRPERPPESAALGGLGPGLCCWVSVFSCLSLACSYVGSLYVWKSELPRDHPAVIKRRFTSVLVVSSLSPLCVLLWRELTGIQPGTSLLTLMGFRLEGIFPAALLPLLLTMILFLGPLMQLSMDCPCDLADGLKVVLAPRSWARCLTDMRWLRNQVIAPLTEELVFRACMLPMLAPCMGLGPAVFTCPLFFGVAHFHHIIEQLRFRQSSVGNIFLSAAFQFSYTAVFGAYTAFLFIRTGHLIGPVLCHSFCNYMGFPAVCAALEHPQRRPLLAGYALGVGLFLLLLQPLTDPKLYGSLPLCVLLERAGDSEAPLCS

Trypsin = Trypsin (Sus scrofa, UniProt P00761); test: trypsin protease activity blockade – biochemical, quenched peptide fluorescence, cherry-pick, selectivity assay for Rce1 protease inhibitor project, dose response (AID 488789)
Chain of Trypsin (P00761 whole entry): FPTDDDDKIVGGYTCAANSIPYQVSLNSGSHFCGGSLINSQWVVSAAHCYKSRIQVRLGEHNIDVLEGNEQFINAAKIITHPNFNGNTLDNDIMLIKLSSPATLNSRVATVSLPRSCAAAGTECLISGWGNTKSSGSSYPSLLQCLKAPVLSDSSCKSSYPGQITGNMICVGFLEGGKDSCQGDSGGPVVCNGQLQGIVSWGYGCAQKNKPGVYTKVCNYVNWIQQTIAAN

Caspase-6 = biological target: T1, Caspase-6 (Homo sapiens, UniProt P55212); test: inhibition of CASP6 peptide cleavage – biochemical, VEID-R110 fluorescence, cherry-pick, dose response (AID 720632)
T1 sequence (P55212 whole entry): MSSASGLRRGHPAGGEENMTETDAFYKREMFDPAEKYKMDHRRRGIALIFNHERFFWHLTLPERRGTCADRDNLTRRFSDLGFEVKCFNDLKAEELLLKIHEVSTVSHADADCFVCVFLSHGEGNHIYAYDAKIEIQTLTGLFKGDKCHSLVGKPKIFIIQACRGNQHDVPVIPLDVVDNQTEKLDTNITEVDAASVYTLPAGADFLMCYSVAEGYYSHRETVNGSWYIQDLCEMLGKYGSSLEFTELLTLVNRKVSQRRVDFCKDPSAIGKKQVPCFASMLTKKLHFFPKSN

CAAX prenyl protease 2 [2] = biological target: T2, CAAX prenyl protease 2 (Saccharomyces cerevisiae S288c, UniProt Q03530); format: biochemical
T2 sequence (Q03530 whole entry): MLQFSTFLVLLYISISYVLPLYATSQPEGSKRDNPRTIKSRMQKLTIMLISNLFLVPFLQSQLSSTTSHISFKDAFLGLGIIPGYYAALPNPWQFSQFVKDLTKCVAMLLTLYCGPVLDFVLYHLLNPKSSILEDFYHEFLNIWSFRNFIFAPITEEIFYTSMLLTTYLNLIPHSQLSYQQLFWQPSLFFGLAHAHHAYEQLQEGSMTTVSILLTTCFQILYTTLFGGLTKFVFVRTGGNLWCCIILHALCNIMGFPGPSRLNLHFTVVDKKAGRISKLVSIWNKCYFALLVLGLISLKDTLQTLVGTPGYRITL

[3] = biological target: Beta-2 adrenergic receptor (Homo sapiens, UniProt P07550); test: ADRB2 activation measured by internalization – cell-based, FAP fluorogen, flow cytometry, cherry pick 1, dose response (AID 588763); format: functional
Chain of Beta-2 adrenergic receptor (P07550 whole entry): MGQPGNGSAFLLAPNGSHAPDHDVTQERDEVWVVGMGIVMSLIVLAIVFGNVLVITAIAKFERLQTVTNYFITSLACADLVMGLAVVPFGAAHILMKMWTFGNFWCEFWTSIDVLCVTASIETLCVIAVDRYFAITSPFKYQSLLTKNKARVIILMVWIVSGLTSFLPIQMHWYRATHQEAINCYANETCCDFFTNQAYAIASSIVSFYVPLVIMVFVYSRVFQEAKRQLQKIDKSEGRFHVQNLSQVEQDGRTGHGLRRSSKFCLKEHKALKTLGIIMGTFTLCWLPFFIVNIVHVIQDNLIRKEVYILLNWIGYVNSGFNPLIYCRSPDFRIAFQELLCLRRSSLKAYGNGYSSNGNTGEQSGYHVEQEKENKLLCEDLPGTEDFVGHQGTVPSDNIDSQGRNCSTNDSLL

[4] = biological target: T3, Short transient receptor potential channel 4 (Mus musculus, UniProt Q9QUQ5); test: calcium entry via TRPC4 opening agents – cell-based, HEK293 TRPC4/mu-opioid, Fluo-4 calcium, dose response (AID 434937); format: functional
T3 sequence (Q9QUQ5 whole entry): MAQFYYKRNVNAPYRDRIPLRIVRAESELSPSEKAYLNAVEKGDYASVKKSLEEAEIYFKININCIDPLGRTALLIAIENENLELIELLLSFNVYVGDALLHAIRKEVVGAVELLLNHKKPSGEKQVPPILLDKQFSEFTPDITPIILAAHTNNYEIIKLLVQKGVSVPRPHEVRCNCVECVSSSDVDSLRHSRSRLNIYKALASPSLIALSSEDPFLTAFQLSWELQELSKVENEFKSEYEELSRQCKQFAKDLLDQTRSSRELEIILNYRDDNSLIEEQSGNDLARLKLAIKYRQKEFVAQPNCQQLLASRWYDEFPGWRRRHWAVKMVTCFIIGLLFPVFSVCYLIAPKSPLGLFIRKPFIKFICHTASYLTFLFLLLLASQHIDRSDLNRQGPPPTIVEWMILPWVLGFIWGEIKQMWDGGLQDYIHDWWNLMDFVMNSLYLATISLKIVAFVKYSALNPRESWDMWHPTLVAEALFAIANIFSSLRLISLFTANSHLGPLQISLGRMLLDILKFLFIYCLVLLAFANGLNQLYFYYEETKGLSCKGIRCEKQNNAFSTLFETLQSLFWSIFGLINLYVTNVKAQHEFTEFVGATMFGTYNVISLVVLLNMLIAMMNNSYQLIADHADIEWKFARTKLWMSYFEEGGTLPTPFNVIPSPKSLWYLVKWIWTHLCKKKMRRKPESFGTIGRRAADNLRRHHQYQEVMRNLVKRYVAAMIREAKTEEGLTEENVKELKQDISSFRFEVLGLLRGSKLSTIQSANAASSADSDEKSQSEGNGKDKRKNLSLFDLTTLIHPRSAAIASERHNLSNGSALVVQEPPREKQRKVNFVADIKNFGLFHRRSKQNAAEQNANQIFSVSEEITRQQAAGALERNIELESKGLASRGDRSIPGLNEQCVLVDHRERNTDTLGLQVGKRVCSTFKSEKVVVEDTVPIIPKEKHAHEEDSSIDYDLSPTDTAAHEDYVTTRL

Mu-type opioid receptor = Mu-type opioid receptor (Homo sapiens, UniProt P35372); test: Counterscreen for agonists of heterodimerization of the mu 1 (OPRM1) and delta 1 (OPRD1) opioid receptors: Luminescence-based cell-based high throughput dose response assay to identify agonists of OPRM1 homodimerization.; format: functional;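 note: U2OS cells expressing OPRM1 and beta-arrestin as split beta-galactosidase partners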
Chain of Mu-type opioid receptor (P35372 whole entry): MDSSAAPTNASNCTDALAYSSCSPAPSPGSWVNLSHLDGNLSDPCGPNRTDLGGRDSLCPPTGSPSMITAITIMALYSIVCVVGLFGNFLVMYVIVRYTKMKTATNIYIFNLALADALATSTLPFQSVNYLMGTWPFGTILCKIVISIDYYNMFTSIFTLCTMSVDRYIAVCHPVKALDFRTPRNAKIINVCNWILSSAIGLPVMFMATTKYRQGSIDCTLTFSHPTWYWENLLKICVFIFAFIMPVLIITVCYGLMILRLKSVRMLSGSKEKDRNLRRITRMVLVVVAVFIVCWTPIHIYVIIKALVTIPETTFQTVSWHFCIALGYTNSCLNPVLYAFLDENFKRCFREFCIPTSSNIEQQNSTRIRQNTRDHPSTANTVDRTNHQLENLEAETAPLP

[5] = biological target: 5-hydroxytryptamine receptor 5A (Homo sapiens, UniProt P47898); test: Counterscreen for agonists of OPRM1-OPRD1 heterodimerization: luminescence-based cell-based high throughput dose response assay to identify agonists of 5-hydroxytryptamine (serotonin) 5A receptor (HTR5A). [Related pubchem assays (depositor defined):AID504326, AID504355, AID504692, AID504904, AID504905]; format: functional
Chain of 5-hydroxytryptamine receptor 5A (P47898 whole entry): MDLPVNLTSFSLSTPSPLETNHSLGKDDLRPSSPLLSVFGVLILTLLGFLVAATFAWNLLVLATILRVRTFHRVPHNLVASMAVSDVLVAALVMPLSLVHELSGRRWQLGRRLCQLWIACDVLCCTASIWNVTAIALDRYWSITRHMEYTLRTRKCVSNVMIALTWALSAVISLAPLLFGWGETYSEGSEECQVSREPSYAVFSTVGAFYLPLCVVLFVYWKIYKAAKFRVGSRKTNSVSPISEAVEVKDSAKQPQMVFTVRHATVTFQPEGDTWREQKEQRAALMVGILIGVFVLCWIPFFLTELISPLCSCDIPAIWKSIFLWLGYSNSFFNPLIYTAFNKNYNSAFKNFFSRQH

[6] = biological target: Delta-type opioid receptor (Homo sapiens, UniProt P41143); test: Counterscreen for agonists of heterodimerization of the mu 1 (OPRM1) and delta 1 (OPRD1) opioid receptors: Luminescence-based cell-based high throughput dose response assay to identify agonists of OPRD1 homodimerization. [Related pubchem assays (depositor defined):AID504326, AID504355, AID504692, AID504904, AID504905]; format: functional
Chain of Delta-type opioid receptor (P41143 whole entry): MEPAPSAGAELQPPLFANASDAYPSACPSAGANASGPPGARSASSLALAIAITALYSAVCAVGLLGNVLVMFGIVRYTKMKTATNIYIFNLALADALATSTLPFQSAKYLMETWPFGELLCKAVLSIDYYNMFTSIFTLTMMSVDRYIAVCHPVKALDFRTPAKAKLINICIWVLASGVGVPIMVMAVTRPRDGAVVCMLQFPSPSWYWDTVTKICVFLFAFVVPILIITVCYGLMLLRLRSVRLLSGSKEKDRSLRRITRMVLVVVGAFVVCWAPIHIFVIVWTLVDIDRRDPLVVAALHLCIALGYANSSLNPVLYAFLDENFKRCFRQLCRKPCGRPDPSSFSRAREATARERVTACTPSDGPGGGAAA

[7] = biological target: T4, Sentrin-specific protease 6 (Homo sapiens, UniProt Q9GZR1); format: functional
T4 sequence (Q9GZR1 whole entry): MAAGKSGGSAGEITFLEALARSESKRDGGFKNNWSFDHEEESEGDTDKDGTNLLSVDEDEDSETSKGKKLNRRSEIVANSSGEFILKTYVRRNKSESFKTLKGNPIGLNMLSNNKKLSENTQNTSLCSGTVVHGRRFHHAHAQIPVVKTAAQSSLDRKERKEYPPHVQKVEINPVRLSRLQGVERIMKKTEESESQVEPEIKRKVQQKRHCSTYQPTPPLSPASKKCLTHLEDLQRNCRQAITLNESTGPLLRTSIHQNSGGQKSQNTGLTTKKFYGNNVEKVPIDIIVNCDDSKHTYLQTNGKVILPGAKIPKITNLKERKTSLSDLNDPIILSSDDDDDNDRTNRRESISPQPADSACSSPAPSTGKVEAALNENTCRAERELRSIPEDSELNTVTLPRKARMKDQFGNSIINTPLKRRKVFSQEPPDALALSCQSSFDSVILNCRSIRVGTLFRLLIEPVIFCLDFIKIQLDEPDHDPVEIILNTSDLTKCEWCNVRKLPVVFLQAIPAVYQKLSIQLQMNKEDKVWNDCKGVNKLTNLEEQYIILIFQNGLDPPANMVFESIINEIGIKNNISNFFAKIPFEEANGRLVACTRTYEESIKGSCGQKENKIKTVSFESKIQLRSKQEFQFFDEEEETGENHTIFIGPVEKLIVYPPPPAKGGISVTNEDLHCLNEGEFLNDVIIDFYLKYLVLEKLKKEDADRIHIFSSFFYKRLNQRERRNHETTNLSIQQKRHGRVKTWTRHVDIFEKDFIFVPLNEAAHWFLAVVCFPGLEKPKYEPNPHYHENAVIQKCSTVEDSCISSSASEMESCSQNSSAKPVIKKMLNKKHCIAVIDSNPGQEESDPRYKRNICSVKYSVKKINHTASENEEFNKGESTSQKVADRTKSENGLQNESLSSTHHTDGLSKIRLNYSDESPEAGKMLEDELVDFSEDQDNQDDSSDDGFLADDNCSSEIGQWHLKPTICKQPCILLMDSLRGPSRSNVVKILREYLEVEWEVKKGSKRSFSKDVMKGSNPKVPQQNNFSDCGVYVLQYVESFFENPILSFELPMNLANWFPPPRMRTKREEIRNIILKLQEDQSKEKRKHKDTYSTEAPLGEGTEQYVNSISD

[8] = biological target: T5, Sentrin-specific protease 8 (Homo sapiens, UniProt Q96LD8); test: inhibition of human SENP8 cleavage activity – biochemical, luminescence, SAR follow-up (AID 504501); format: functional
T5 sequence (Q96LD8 whole entry): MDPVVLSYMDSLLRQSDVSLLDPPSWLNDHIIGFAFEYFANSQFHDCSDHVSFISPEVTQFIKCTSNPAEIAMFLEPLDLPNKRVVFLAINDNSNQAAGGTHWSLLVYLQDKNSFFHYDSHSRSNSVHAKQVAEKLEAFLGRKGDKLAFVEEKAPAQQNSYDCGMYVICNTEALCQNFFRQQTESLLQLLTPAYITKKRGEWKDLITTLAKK

[9] = biological target: T6, Sentrin-specific protease 7 (Homo sapiens, UniProt Q9BQF6); test: inhibition of human SENP7 cleavage activity – biochemical, luminescence, SAR follow-up (AID 504497); format: functional
T6 sequence (Q9BQF6 whole entry): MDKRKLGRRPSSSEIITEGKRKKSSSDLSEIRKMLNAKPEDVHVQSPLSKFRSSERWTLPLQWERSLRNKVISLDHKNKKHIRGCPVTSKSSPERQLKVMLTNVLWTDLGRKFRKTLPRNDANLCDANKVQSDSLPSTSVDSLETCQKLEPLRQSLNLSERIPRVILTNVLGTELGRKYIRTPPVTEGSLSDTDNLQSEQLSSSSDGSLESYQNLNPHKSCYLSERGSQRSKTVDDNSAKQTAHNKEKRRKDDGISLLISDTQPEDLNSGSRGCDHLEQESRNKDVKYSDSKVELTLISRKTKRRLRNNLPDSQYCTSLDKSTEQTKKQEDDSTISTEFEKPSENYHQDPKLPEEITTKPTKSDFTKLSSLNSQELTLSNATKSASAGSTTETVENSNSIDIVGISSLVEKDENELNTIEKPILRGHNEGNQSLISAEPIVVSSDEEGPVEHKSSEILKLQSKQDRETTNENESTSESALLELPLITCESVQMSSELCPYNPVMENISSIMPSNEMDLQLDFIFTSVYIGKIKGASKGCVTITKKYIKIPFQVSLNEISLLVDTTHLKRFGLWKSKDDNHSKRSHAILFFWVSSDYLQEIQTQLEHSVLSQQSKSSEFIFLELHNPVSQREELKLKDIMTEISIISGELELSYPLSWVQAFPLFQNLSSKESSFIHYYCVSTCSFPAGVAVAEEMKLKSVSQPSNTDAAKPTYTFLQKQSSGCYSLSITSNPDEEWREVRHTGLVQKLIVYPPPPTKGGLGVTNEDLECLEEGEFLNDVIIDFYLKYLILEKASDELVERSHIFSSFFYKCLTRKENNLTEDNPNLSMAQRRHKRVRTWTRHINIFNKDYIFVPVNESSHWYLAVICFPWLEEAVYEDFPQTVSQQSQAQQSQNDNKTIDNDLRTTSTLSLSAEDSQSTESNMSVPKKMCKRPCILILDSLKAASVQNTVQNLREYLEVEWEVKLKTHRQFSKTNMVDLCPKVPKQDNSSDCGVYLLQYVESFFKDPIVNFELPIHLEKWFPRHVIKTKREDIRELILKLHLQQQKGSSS

[10] = biological target: T6, Sentrin-specific protease 7; format: functional
Caspase-3 [11] = biological target: T7, Caspase-3 (Homo sapiens, UniProt P42574); format: functional
T7 sequence (P42574 whole entry): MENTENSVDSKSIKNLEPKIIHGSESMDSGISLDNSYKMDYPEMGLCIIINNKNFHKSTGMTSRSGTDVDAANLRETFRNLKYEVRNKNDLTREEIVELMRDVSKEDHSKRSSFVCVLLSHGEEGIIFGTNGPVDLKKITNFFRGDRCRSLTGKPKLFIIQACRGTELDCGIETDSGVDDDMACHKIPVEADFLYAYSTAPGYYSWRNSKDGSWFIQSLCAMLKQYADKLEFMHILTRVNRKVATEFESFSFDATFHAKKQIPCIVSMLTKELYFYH

Caspase-3 [12] = biological target: T7, Caspase-3; test: SAR Analysis of small molecule inhibitors of Sentrin-specific proteases (SENPs) using a Caspase-3 Selectivity assay. [Related pubchem assays (depositor defined):AID2540, AID2599, AID434973, AID489001]; format: functional
[13] = biological target: T4, Sentrin-specific protease 6; test: SAR Analysis of small molecule inhibitors of Sentrin-specific protease 6 (SENP6) using a Luminescent assay. [Related pubchem assays (depositor defined):AID2582, AID2599]; format: functional
[14] = biological target: T5, Sentrin-specific protease 8; format: functional

CC1(C)CNC(=O)c2sc(NC(=O)c3ccccc3)nc2C1
AC50 (HeLa): 55 µM (active)

Nc1ccc(Cc2ccc(N)c(C(=O)O)c2)cc1C(=O)O
AC50 (CAAX prenyl protease 2 [1]): 2.25 µM (active)
AC50 (Trypsin): 7.3 µM (active)
AC50 (Caspase-6): 37.8 µM (active)
AC50 (CAAX prenyl protease 2 [2]): 32.3 µM (active)

Cc1ccc(OCc2cc(C(=O)NCc3ccc(OC(F)(F)F)cc3)no2)cn1
EC50 [3]: 0.792 µM (active)

Cc1cccc(NC(S)=NCC(c2cccnc2)N(C)C)c1 (stereo not given)
EC50 [4]: 0.0267 µM (active)
EC50 (Mu-type opioid receptor): 15.6 µM (inactive)
EC50 [5]: > 92.5 µM (inactive)
EC50 [6]: > 92.5 µM (inactive)

Cc1ccc(CNC(=O)c2cc(-c3ccccc3)nn2CC2CC(c3cccc([N+](=O)[O-])c3)=NO2)cc1 (stereo not given)
AC50 (CAAX prenyl protease 2 [1]): 30 µM (active)

C/C(=N/OC(=O)CC(C)C)c1cc(-c2ccc(Cl)cc2)no1
AC50 (HeLa): 58.7 µM (active)

Cc1ccc(NC(=O)C(=O)c2c[nH]c3ccccc23)cc1
IC50 [7]: > 100 µM (inactive)
IC50 [8]: > 99 µM (inactive)
IC50 [9]: 2.33 µM (active)
IC50 [10]: 2.41 µM (active)
IC50 (Caspase-3 [11]): 18.6 µM (active)
IC50 (Caspase-3 [12]): 9.05 µM (active)
IC50 [13]: > 99 µM (inactive)
IC50 [14]: > 100 µM (inactive)
